The record followed here is US20250304596A1, “PYRAZINE DERIVATIVES AND USES THEREOF” (FOGHORN THERAPEUTICS INC., priority 2022, published 2025).

Assay [1] deals with T1, HiBit-BRM fusion protein (Homo sapiens, UniProt P51531).
T1 construct: expressed in transfected cells
In words: HiBiT-BRM cell-based degradation assay (Nano-Glo HiBiT Lytic Detection, 24 h). The following applies: stable HeLa cell line expressing HiBiT-BRM; for DC50: read-out: BRM HiBit Degradation IC50. In a few lines: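 Luminescence from LgBiT complementation after lysis measured HiBiT-BRM levels in stably expressing HeLa cells. Compounds were dosed at up to 30 μM final, in 3-fold 10-point dilutions, for 24 h. Percent degradation was scaled between DMSO wells and wells treated with 2 μM standard BRM/BRG1 degrader.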

For assay [2], the target named is T2, HiBit-BRG1 fusion protein (Homo sapiens, UniProt P51532).
T2 construct: expressed in transfected cells
Kind of assay: HiBiT-BRG1 cell-based degradation assay (Nano-Glo HiBiT Lytic Detection, 24 h). The settings on record: stable HeLa cell line expressing HiBit-BRG1 and LgBit; for Dmax: read-out: BRG1 HiBit Degradation Maximum (%); for DC50: read-out: BRMG1 HiBit Degradation IC50. In a few lines:
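Degradation read by lytic NanoBiT luminescence after 24 h compound exposure of a stable HiBit-BRG1/LgBit HeLa line. Ten-point, 3-fold series in duplicate, top final dose 30 μM; DMSO and 2 μM standard degrader define 0% and 100% degradation.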
On the technique in general: HiBiT is a short tag that completes a luciferase, so light tracks the accessible tagged protein.

T2 sequence (P51532 whole entry, the tested form may be a part): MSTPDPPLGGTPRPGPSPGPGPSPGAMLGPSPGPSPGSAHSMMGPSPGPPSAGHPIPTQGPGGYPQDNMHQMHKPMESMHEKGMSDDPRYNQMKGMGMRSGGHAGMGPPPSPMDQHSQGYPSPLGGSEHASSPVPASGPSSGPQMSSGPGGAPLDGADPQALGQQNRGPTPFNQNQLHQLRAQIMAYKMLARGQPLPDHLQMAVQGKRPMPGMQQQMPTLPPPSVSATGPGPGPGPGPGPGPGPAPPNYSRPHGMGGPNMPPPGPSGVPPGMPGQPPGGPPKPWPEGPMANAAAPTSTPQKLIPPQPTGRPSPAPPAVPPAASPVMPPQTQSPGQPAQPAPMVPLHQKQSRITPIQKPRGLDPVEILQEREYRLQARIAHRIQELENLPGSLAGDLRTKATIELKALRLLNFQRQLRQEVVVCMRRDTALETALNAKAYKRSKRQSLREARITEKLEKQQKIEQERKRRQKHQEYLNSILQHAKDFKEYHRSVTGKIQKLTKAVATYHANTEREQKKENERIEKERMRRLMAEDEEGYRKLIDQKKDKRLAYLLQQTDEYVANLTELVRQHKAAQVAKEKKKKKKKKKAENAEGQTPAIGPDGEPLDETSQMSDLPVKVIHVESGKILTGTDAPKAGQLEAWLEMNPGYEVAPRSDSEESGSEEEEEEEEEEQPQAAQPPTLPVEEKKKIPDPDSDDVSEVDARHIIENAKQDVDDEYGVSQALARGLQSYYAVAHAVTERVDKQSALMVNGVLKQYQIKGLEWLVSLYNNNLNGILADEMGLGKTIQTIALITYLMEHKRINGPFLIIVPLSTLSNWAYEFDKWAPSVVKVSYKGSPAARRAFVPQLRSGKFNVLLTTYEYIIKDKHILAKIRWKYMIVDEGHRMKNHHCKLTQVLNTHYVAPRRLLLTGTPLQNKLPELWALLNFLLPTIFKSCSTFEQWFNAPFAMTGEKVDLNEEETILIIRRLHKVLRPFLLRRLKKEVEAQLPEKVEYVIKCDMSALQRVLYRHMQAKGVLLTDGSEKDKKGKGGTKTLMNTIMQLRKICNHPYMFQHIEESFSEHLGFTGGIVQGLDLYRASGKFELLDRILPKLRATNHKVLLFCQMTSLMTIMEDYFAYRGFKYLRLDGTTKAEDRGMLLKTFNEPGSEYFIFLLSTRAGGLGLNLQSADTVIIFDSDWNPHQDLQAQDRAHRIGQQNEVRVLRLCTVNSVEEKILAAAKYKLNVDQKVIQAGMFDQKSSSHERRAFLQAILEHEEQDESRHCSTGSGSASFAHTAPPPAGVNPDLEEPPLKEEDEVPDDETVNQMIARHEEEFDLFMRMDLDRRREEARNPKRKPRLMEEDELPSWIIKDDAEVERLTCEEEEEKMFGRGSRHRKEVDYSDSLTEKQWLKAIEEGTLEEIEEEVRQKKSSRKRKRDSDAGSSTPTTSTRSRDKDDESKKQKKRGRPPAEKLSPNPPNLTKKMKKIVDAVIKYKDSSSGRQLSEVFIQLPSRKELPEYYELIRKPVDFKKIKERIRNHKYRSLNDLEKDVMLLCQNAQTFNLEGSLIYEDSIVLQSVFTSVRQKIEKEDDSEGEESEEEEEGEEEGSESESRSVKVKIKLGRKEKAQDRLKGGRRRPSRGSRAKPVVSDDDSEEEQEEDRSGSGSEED
T1 sequence (P51531 whole entry, the tested form may be a part): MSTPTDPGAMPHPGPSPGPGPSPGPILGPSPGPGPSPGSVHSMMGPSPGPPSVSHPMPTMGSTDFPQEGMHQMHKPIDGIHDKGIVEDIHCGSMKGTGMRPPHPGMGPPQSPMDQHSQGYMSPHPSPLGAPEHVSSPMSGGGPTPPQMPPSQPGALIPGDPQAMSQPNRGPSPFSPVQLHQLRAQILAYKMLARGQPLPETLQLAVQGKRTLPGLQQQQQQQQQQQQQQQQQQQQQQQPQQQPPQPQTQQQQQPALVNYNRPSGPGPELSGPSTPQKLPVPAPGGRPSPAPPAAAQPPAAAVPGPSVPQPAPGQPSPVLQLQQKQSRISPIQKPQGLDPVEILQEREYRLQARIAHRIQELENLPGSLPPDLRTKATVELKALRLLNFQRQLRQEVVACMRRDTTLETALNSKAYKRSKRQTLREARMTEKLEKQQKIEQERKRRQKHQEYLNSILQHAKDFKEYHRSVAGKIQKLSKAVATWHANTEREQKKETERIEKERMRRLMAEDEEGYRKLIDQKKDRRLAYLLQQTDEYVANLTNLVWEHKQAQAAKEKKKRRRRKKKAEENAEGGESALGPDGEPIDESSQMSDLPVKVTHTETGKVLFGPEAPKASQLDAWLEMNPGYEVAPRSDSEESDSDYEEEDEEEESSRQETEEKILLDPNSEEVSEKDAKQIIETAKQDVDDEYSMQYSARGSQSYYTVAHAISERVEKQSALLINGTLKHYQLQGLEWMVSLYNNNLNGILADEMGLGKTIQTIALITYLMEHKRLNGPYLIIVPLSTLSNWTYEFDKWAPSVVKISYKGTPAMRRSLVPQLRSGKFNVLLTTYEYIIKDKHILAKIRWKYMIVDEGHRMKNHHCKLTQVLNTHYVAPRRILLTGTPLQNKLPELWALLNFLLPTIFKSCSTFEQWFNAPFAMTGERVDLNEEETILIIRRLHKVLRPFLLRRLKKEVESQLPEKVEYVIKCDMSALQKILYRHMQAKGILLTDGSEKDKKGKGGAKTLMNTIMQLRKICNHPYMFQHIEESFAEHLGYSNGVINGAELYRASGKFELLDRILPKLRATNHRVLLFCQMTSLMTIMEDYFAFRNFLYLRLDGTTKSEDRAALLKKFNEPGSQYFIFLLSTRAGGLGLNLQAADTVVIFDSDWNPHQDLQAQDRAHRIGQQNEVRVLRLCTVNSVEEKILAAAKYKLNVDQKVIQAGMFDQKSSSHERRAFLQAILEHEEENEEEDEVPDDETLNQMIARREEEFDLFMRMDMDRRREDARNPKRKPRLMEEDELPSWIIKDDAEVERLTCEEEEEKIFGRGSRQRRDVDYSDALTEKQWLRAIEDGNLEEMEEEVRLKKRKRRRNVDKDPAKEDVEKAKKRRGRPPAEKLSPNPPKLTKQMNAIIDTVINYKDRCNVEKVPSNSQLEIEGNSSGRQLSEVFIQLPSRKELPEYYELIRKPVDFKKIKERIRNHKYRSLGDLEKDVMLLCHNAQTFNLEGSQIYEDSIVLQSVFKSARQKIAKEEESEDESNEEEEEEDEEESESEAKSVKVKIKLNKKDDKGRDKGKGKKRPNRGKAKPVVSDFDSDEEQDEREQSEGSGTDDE

For the compound `Cc1ncsc1-c1ccc([C@H](C)NC(=O)[C@@H]2C[C@@H](O)CN2C(=O)[C@@H](c2cc(-c3cnc(N4CC[C@H](c5cc6nnc(-c7ccccc7O)cc6s5)C4)nc3)no2)C(C)C)cc1` [Compound 91, (2S,4R)-4-hydroxy-1-((R)-2-(3-(2-((S)-3-(3-(2-hydroxyphenyl)thieno[3,2-c]pyridazin-6-yl)pyrrolidin-1-yl)pyrimidin-5-yl)isoxazol-5-yl)-3-methylbutanoyl)-N-((S)-1-(4-(4-methylthiazol-5-yl)phenyl)ethyl)pyrrolidine-2-carboxamide], in assay [1], the “BRM HiBit Degradation Maximum (%)” value is on record as “A (“A” indicates maximum degradation ≥75%)” and the DC50 is below 10 nM. Further, the Dmax in assay [2] was above 50%.
On to `Cc1ncsc1-c1ccc([C@H](C)NC(=O)[C@@H]2C[C@@H](O)CN2C(=O)[C@@H](c2cc(-c3cnc(N4CC[C@H](c5sc6nnc(-c7ccccc7O)cc6c5C)C4)nc3)no2)C(C)C)cc1` [Compound 41, (2S,4R)-4-hydroxy-1-((R)-2-(3-(2-((S)-3-(3-(2-hydroxyphenyl)-5-methylthieno[2,3-c]pyridazin-6-yl)pyrrolidin-1-yl)pyrimidin-5-yl)isoxazol-5-yl)-3-methylbutanoyl)-N-((S)-1-(4-(4-methylthiazol-5-yl)phenyl)ethyl)pyrrolidine-2-carboxamide], for which, in assay [1], the “BRM HiBit Degradation Maximum (%)” value is “A (“A” indicates maximum degradation ≥75%)” and the DC50 is below 10 nM. In addition, in assay [2], the Dmax is below 50% and the DC50 was above 1000 nM.
Regarding `Cc1ncsc1-c1ccc([C@H](C)NC(=O)[C@@H]2C[C@@H](O)CN2C(=O)[C@@H](c2cc(-c3cnc(N4C[C@@H]5[C@H](C4)[C@H]5c4sc5nnc(-c6ccccc6O)cc5c4C)nc3)no2)C(C)C)cc1` (stereo in doubt) [Compound 40, (2S,4R)-4-hydroxy-1-((R)-2-(3-(2-((1R,5R)-6-(3-(2-hydroxyphenyl)-5-methylthieno[2,3-c]pyridazin-6-yl)-3-azabicyclo[3.1.0]hexan-3-yl)pyrimidin-5-yl)isoxazol-5-yl)-3-methylbutanoyl)-N-((S)-1-(4-(4-methylthiazol-5-yl)phenyl)ethyl)pyrrolidine-2-carboxamide], in assay [1], the “BRM HiBit Degradation Maximum (%)” value is “A (“A” indicates maximum degradation ≥75%)” and the DC50 was below 10 nM. Besides, in assay [2], the Dmax is below 50% and the DC50 is above 100 nM.
For `Cc1ncsc1-c1ccc([C@H](C)NC(=O)[C@@H]2C[C@@H](O)CN2C(=O)[C@@H](c2cc(-c3ccnc(N4CC[C@H](c5sc6nnc(-c7ccccc7O)cc6c5C)C4)n3)no2)C(C)C)cc1` [Compound 8, (2S,4R)-4-hydroxy-1-((R)-2-(3-(2-((S)-3-(3-(2-hydroxyphenyl)-5-methylthieno[2,3-c]pyridazin-6-yl)pyrrolidin-1-yl)pyrimidin-4-yl)isoxazol-5-yl)-3-methylbutanoyl)-N-((S)-1-(4-(4-methylthiazol-5-yl)phenyl)ethyl)pyrrolidine-2-carboxamide], in that order: “A (“A” indicates maximum degradation ≥75%)”, above 10 nM, below 50% and above 1000 nM.
As to `Cc1ncsc1-c1ccc([C@H](C)NC(=O)[C@@H]2C[C@@H](O)CN2C(=O)[C@@H](c2cc(N3C[C@@H]4[C@H](C3)[C@H]4c3sc4nnc(-c5ccccc5O)cc4c3C)no2)C(C)C)cc1` [Compound 16, (2S,4R)-4-hydroxy-1-((R)-2-(3-((1R,5S,6R)-6-(3-(2-hydroxyphenyl)-5-methylthieno[2,3-c]pyridazin-6-yl)-3-azabicyclo[3.1.0]hexan-3-yl)isoxazol-5-yl)-3-methylbutanoyl)-N-((S)-1-(4-(4-methylthiazol-5-yl)phenyl)ethyl)pyrrolidine-2-carboxamide], in assay [1], the “BRM HiBit Degradation Maximum (%)” value is reported as “A (“A” indicates maximum degradation ≥75%)” and the DC50 was below 10 nM. Besides, in assay [2], the Dmax was above 50% and the DC50 was above 10 nM.
Turning to `Cc1ncsc1-c1ccc([C@H](C)NC(=O)[C@@H]2C[C@@H](O)CN2C(=O)[C@@H](c2cc(-c3cnc(N4CCC(c5sc6nnc(-c7ccccc7O)cc6c5C)CC4)nc3)no2)C(C)C)cc1` (single isomer, unassigned) [Compound 66], in assay [1], the “BRM HiBit Degradation Maximum (%)” value is “A (“A” indicates maximum degradation ≥75%)” and the DC50 is below 10 nM. In addition, in assay [2], the Dmax is below 50% and the DC50 is above 1000 nM.
For `Cc1nc(N2CCC(c3sc4nnc(-c5ccccc5O)cc4c3C)CC2)ccc1-c1noc(C(C(=O)N2C[C@H](O)C[C@H]2C(=O)N[C@@H](C)c2ccc(-c3scnc3C)cc2)C(C)C)c1Cl` (stereo in doubt) [Compound 21, (2S,4R)-1-((S)-2-(4-chloro-3-(6-(4-(3-(2-hydroxyphenyl)-5-methylthieno[2,3-c]pyridazin-6-yl)piperidin-1-yl)-2-methylpyridin-3-yl)isoxazol-5-yl)-3-methylbutanoyl)-4-hydroxy-N-((S)-1-(4-(4-methylthiazol-5-yl)phenyl)ethyl)pyrrolidine-2-carboxamide] the same measures were “A (“A” indicates maximum degradation ≥75%)”, above 10 nM, above 50% and above 100 nM.
For `Cc1ncsc1-c1ccc([C@H](C)NC(=O)[C@@H]2C[C@@H](O)CN2C(=O)[C@@H](c2cc(-c3ccc(N4CC(c5sc6nnc(-c7ccccc7O)cc6c5C)C4)nn3)no2)C(C)C)cc1` [Compound 50, (2S,4R)-4-hydroxy-1-((R)-2-(3-(6-(3-(3-(2-hydroxyphenyl)-5-methylthieno[2,3-c]pyridazin-6-yl)azetidin-1-yl)pyridazin-3-yl)isoxazol-5-yl)-3-methylbutanoyl)-N-((S)-1-(4-(4-methylthiazol-5-yl)phenyl)ethyl)pyrrolidine-2-carboxamide] the same measures were “A (“A” indicates maximum degradation ≥75%)”, above 10 nM, below 50% and above 1000 nM.
As for `Cc1ncsc1-c1ccc([C@H](C)NC(=O)[C@@H]2C[C@@H](O)CN2C(=O)[C@@H](c2cc(N3CC4(C3)CN(c3sc5nnc(-c6ccccc6O)cc5c3C3CC3)C4)no2)C(C)C)cc1` [Compound 71, (2S,4R)-1-((R)-2-(3-(6-(5-cyclopropyl-3-(2-hydroxyphenyl)thieno[2,3-c]pyridazin-6-yl)-2,6-diazaspiro[3.3]heptan-2-yl)isoxazol-5-yl)-3-methylbutanoyl)-4-hydroxy-N—((S)-1-(4-(4-methylthiazol-5-yl)phenyl)ethyl)pyrrolidine-2-carboxamide], in assay [1], the “BRM HiBit Degradation Maximum (%)” value is on record as “A (“A” indicates maximum degradation ≥75%)” and the DC50 is below 10 nM. Besides, in assay [2], the Dmax is below 50%.
Consider `Cc1ncsc1-c1ccc([C@H](C)NC(=O)[C@@H]2C[C@@H](O)CN2C(=O)[C@@H](c2cc(N3CC[C@@H](c4cc5nnc(-c6ccccc6O)cc5s4)C3)no2)C(C)C)cc1` [Compound 72, (2S,4R)-4-hydroxy-1-((R)-2-(3-((R)-3-(3-(2-hydroxyphenyl)thieno[3,2-c]pyridazin-6-yl)pyrrolidin-1-yl)isoxazol-5-yl)-3-methylbutanoyl)-N-((S)-1-(4-(4-methylthiazol-5-yl)phenyl)ethyl)pyrrolidine-2-carboxamide], for which, in assay [1], the “BRM HiBit Degradation Maximum (%)” value is given as “A (“A” indicates maximum degradation ≥75%)” and the DC50 is below 10 nM. The Dmax in assay [2] is below 50%.
